This is an account of results in ChEMBL document CHEMBL3861975, “Discovery and Rational Design of Natural-Product-Derived 2-Phenyl-3,4-dihydro-2H-benzo[f]chromen-3-amine Analogs as Novel and Potent Dipeptidyl Peptidase 4 (DPP-4) Inhibitors for the Treatment of Type 2 Diabetes” (J Med Chem, 2016).

Calls of active or inactive are those of the source.

The species entered for data set [1] is Mus musculus. The note with it: ICR, 5 mg/kg.
Description: (§1) In-vivo inhibition of DPP4 in ICR mouse at 5 mg/kg, ip administered as single dose using Gly-Pro-AMC as substrate after 24 hrs post dose by continuous fluorometric assay
The subject of data set [2] is Mus musculus. The data set can be described thus: In-vivo inhibition of DPP4 in B6.V-Lep'ob/Lep'ob (ob/ob) mouse at 3 mg/kg, po administered as single dose using Gly-Pro-AMC as substrate after 24 hrs post dose by continuous fluorometric assay. The data set is classed as functional, organism-based.
For data set [3], the species on record is Mus musculus. The experiment in a line: animal or person. The conditions noted are these: po, 24 h, read-out: INH.
Data set [4] in a line: Mean residence time (0 to infinity) in Sprague-Dawley rat at 1 mg/kg, iv by LC-MS/MS method. The data set is classed as ADME, organism-based. The conditions noted are these: in vivo.
A short description of data set [5]: AUC (0 to infinity) in Sprague-Dawley rat at 2 mg/kg, po by LC-MS/MS method. Further details: dose 2 mg/kg, route oral, time infinity. The data set is classed as ADME, organism-based. The conditions noted are these: in vivo.
Data set [6] is filed under the species Mus musculus. The experiment in a line: animal or person. The conditions noted are these: po, 24 h, read-out: INH. This is another data set of the same source.
The nature of data set [7]: AUC (0 to t) in Sprague-Dawley rat at 2 mg/kg, po by LC-MS/MS method. Format: ADME, organism-based. The conditions noted are these: in vivo.
Data set [8] in a line: Oral bioavailability in Sprague-Dawley rat at 2 mg/kg by LC-MS/MS method. The data set is classed as ADME, organism-based. The note with it: in vivo.
The nature of data set [9]: Half life in Sprague-Dawley rat at 1 mg/kg, iv by LC-MS/MS method. The data set is classed as ADME, organism-based. The conditions noted are these: in vivo.
Data set [10] is described as follows: AUC (0 to t) in Sprague-Dawley rat at 1 mg/kg, iv by LC-MS/MS method. Format: ADME, organism-based. The note with it: in vivo.
The species named for data set [11] is Mus musculus. The note with it: 1 to 10 mg/kg.
Data set [12] is described as follows: AUC (0 to infinity) in Sprague-Dawley rat at 1 mg/kg, iv by LC-MS/MS method. Format: ADME, organism-based. On the set-up: dose 1 mg/kg, route intravenous, time infinity. The conditions noted are these: in vivo.
Data set [13] in a line: Clearance in Sprague-Dawley rat at 1 mg/kg, iv by LC-MS/MS method. The note with it: in vivo. Format: ADME, organism-based.
A short description of data set [14]: Cmax in Sprague-Dawley rat at 2 mg/kg, po by LC-MS/MS method. Format: ADME, organism-based. Further details: dose 2 mg/kg, route oral. The note with it: in vivo.
The nature of data set [15]: Mean residence time (0 to infinity) in Sprague-Dawley rat at 2 mg/kg, po by LC-MS/MS method. The data set is classed as ADME, organism-based. The conditions noted are these: in vivo.
The species named for data set [16] is Mus musculus. The experiment in a line: animal or person. The conditions noted are these: ICR, ip, 24 h, read-out: INH.
Description: as §1
A short description of data set [17]: Half life in Sprague-Dawley rat at 2 mg/kg, po by LC-MS/MS method. The conditions noted are these: in vivo. The data set is classed as ADME, organism-based.
The species named for data set [18] is Mus musculus. The data set can be described thus: animal or person. The conditions noted are these: po, 24 h, read-out: INH. This is another data set of the same source.
The test system of data set [19] is Mus musculus. The data set can be described thus: Improvement in glucose tolerance in ICR mouse at 1 to 10 mg/kg, po administered as single dose 60 mins before glucose challenge and measured 30 to 60 mins post glucose challenge by OGTT method. Format: functional, organism-based.
Data set [20] is described as follows: Tmax in Sprague-Dawley rat at 2 mg/kg, po by LC-MS/MS method. Format: ADME, organism-based. The note with it: in vivo.
The nature of data set [21]: Volume of distribution at steady state in Sprague-Dawley rat at 1 mg/kg, iv by LC-MS/MS method. The conditions noted are these: in vivo, read-out: Vdss. The data set is classed as ADME, organism-based.

For `CS(=O)(=O)n1cc2c(n1)CN([C@H]1CO[C@H](c3cc(F)ccc3F)[C@@H](N)C1)C2`, the inhibition result in the data set listed under Mus musculus [1] and in the data set on Mus musculus [2] was “Active” each time.
As to `COc1cc2ccc3c(c2cc1OC)C[C@H](N)[C@@H](c1cc(F)c(F)cc1F)O3`, the inhibition in vivo at 1 mg/kg in the data set filed under Mus musculus [3] is greater than 80%. Besides, the MRT inf – broadly, the average time that molecules of a dose stay in the body – worked out at 4.87 h in data set [4] and 6.33 h in [15]. Further, the AUC in data set [5] worked out at 6091.31 µg/L/h; in data set [12], 3415 µg/L/h. Also, the inhibition in vivo at 3 mg/kg in the data set filed under Mus musculus [6] is greater than 80%. In addition, the AUCt is 6052.89 µg/L/h in data set [7] and 3380.54 µg/L/h in [10]. Further, in data set [8], the bioavailability (as a rule, the share of a dose that reaches the circulation, judged against a reference dose that is usually intravenous) was 89.2%. The half-life (in general, the time needed for the level to fall by half in the phase considered) in [9] is 232 min; in [17], 183 min. The inhibition result in the data set listed under Mus musculus [11] was “Dose-dependent effect”. Moreover, in data set [13], the clearance (in general, the volume of plasma or blood freed of the substance per unit of time) was 5 mL/min/kg. Further, in data set [14], the Cmax (commonly the highest concentration seen after dosing) worked out at 502 ng/mL. Besides, in the data set filed under Mus musculus [16], the inhibition in vivo at 5 mg/kg is no more than 80%. In the data set listed under Mus musculus [18], the inhibition in vivo at 10 mg/kg is greater than 80%. Moreover, the Activity result in the data set on Mus musculus [19] was “Dose-dependent effect”. The Tmax – broadly, the time from dosing to the highest level – in data set [20] was determined as 4.67 h. Also, in [21], the Vd is 1.66 L/kg.
With `COc1cc2c3c(ccc2cc1S(C)(=O)=O)O[C@H](c1cc(F)c(F)cc1F)[C@@H](N)C3`, the results for the mean residence time MRT inf in [4] and in data set [15] were 7.56 h and 9.05 h, respectively. Moreover, the AUC in data set [5] turned out to be 26373.69 µg/L/h; in data set [12], 25460.37 µg/L/h. Also, the AUCt turned out to be 26527.6 µg/L/h in data set [7] and 24208.7 µg/L/h in data set [10]. In [8], this molecule had a bioavailability of 54.8%. Also, the half-life in [9] is 321 min; in data set [17], 410 min. Moreover, in data set [13], the clearance was 0.667 mL/min/kg. For the same molecule, the Cmax in data set [14] is 2320 ng/mL. Further, in data set [20], the Tmax was found to be 4.67 h. Moreover, the Vd in data set [21] was 0.63 L/kg.
